This note sets out measurements from patent publication US9655912B2, “Reduction of gastrointestinal tract colonisation by campylobacter” (priority 2012, dated 2017).

One assay has as its system C. jejuni. Briefly: ELISA: inhibition of C. jejuni adherence to BgAgs (Core-I, Core-II, H-I, H-II, Leb, Ley, Lex) by Ferric Quinate. As to conditions: for Inhibition of C. jejuni binding to BgAgs: 34 μM Fe(QA)3, pre-incubation and post-treatment, ELISA. It counts as binding, Campylobacter jejuni. How it is done: The inhibitory potential of Ferric Quinate Fe(QA)3 on adherence of C. jejuni was analyzed by ELISA using BgAgs (Core-I, Core-II, H-I, H-II, Leb, Ley and Lex). C. jejuni was pre-incubated with 34 μM Fe(QA)3 and specific inhibition was also analyzed by post-treatment of C. jejuni with Fe(QA)3 which bound to BgAgs at the time.
For orientation: ELISA stands for enzyme-linked immunosorbent assay.

The test system of another assay is C. jejuni NCTC11168-O. Briefly: Chicken caecal colonisation after oral challenge, Ferric Quinate as additive to water. It counts as in vivo. As to conditions: 0.34 mM in water, 6-weeks old birds, 3 and 7 days post-challenge. How it is done:
These inhibitory properties against C. jejuni adherence to BgAgs were analyzed in vivo. Ferric Quinate was used as an additive to water (0.034-0.34 mM) and as an inhibitor of C. jejuni NCTC11168 strain adherence to, and thus colonization, in the chicken intestinal tract. 6-weeks old birds (n=10 per group) were challenged with 3×10^3-5 cfu wild-type strain NCTC11168-O by oral gavage. Caecal colonisation levels were determined in birds from each group at 3 and 7 days post-challenge.

Assay [1] relates to C. jejuni NCTC11168 strain. As to the kind of experiment: Growth of C. jejuni in culture medium supplemented with Fe(QA)3. It counts as cell-based, Campylobacter jejuni. The conditions noted are these: 34 and 340 μM in culture medium. The source says: To further clarify the growth-effect properties of Fe(QA)3, we investigated the effect of adding Fe(QA)3 to the culture medium.

Assay [2] relates to C. jejuni strain NCTC11168. As to the kind of experiment: Inhibition ELISA of binding of strain NCTC11168 to H-II glycoconjugate. Details: species or system Campylobacter jejuni. The conditions noted are these: p<0.001, FIG. 2A. How it is done:
Purified MOMP from NCTC11168 (MOMP(+)), and pre-incubation of NCTC11168 bacterial cells with H-II glycoconjugate (H-II). […] B) ELISA plate was coated with a selection of BgAgs. Specific binding was calculated by subtracting the BSA (negative control) values from the BgAg absorbance at 405 nm. Strain NCTC11168 and Cj-266 (high binder strain, S3—Table 1), and corresponding ΔflaA mutants, have been examined for binding to Le^b, H-II, H-I, Le^x and Le^a. t-test confirmed the reduction in binding seen with mutants are significant (Le^b; p=2.5E-05, H-II; p=0.012, H-I; p=0.001, Le^x; p=0.029 and Le^a; p=0.000) in strain NCTC11168. However, Cj-266ΔflaA mutation had no effect on binding, which indicates the binding capacity was compensated by MOMP protein. Each group of bars from left to right: NCTC11168, 11168-ΔflaA, Cj-266, Cj-266ΔflaA. C) A double mutant (DM) of ΔflaA and single substitution of glycosylation site in MOMP protein (Thr^268 was substituted with Gly) was constructed in both strain NCTC11168 and Cj-266, and the binding to Le^b H-I and H-II was examined. […] Each group of bars from left to right: Leb, H-II, H-1.
Deletion mutant of ΔflaA in strains NCTC11168 and Cj-266 (a clinical isolate, S3—Table) were constructed.

As to `O=C(O)[C@]1(O)C[C@@H](O)[C@@H](O)[C@H](O)C1` [Quinic Acid, D-(−)-quinic acid, reference compound], the “Inhibition of C. jejuni binding to BgAgs” value in the assay on C. jejuni is recorded as “no inhibition”.

Regarding Ferric quinate [Fe(QA)3], the “Inhibition of C. jejuni binding to BgAgs” value with C. jejuni is given as 90%. In addition, in the assay on C. jejuni (bacteria cultured on MH containing Fe(QA)3), the “Inhibition of microbial adherence, bacterial culture (MH) containing Fe(QA)3” value was “reproducible inhibition”. Besides, the “Resistance concerning the binding abilities after sequential passages” value in the assay with C. jejuni (sequential passages (P) of bacteria to new plate containing Fe(QA)3) is “didn't cause any resistance”. Also, the “Reduction of adhesion of C. jejuni to the intestinal mucosa (caecal colonisation)” value in the assay with C. jejuni NCTC11168-O is given as 2-3 Log. Besides, in assay [1], the “Effect on growth of C. jejuni NCTC11168” value is given as “did not affect the growth”.

B1: MOMP(+): major outer membrane protein purified under native conditions from C. jejuni strain NCTC11168 (protein)
chain: TPLEEAIKDVDVSGVLRYRYDTGNFDKNFVNNSNLNNSKQDHKYRAQVNFSAAIADNFKAFVQFDYNAADGGYGANGIKNDQKGLFVRQLYLTYTNEDVATSVIAGKQQLNLIWTDNAIDGLVGTGVKVVNNSIDGLTLAAFAVDSFMAAEQGADLLEHSNISTTSNQAPFKVDSVGNLYGAAAVGSYDLAGGQFNPQLWLAYWDQVAFFYAVDAAYSTTIFDGINWTLEGAYLGNSLDSELDDKTHANGNLFALKGSIEVNGWDASLGGLYYGDKEKASTVVIEDQGNLGSLLAGEEIFYTTGSRLNGDTGRNIFGYVTGGYTFNETVRVGADFVYGGTKTEAANHLGGGKKLEAVARVDYKYSPKLNFSAFYSYVNLDQGVNTNESADHSTVRLQALYKF
For the molecule B1, the figures for the “Bacterial binding to H-II antigen” value in assay [2] and in assay [2] (listed as purified MOMP) were “significantly reduced” and “significantly inhibited”, respectively.
